We go through three compounds from patent US20140135499A1, “METHODS FOR THE TOTAL CHEMICAL […] OF ENANTIOMERICALLY-PURE 7-(2'-[…]) ETHYL CAMPTOTHECIN” (BioNumerik Pharmaceuticals, Inc., priority 2012, published 2014).

Assay [1] has as its system angiogenesis (neovascularization). To be noted: mice cornea model; dose levels of 210 mg/kg; cited from earlier work.
The subject of assay [2] is doxorubicin resistant human ovarian cancer cells (A2780/DX5). The assay is described as follows: SRB cytotoxicity assay, inhibition of cell growth, A2780/DX5. It counts as cell-based. The following applies: for IC50: A2780/DX5, 2 hour treatment, SRB assay at 5 days; for Resistance Factor Ratio A2780/DX5 IC50/A2780WT IC50: ratio of average IC50 values. The procedure: (§1) Wild type human ovarian cancer cells (A2780/WT) and doxorubicin resistant human ovarian cancer cells (A2780/DX5) were cultured in RPMI 1640 medium supplemented with 10% fetal bovine serum and 2 mM glutamine, and grown in a 37° C. incubator with 5% CO2. BNP1350 synthesized from camptothecin natural product (purchased from APAC) and BNP1350 synthesized via the Total Synthesis Scheme at BioNumerik Pharmaceuticals, Inc. were dissolved in DMSO for use in cytotoxicity experiments where inhibition of cell growth was measured using the SRB assay. Briefly, cells were seeded (450 cells/well in 100 μL volume) in a 96-well microtiter plates and allowed to attach for 24 hours prior to treatment with either natural product BNP1350 or total synthesis BNP1350 for 2 hours. Following this 2 hour treatment, BNP1350 was removed, the cells were washed with drug-free media (200 μL), and then drug-free media (200 μL) was added to the cells which were allowed to continue growing at 37° C. with 5% CO2 before the SRB assay was performed (total experimental time from the time of initial seeding was 5 days, during which 5 cell doublings occurred).

Assay [3] has as its system panel of over twenty (20) human cancer cell lines. Kind of assay: In vitro studies on a panel of human cancer cell lines. It counts as cell-based. The text has this:
In contrast, Karenitecin is a highly lipophilic camptothecin derivative characterized by substantial lactone stability and long plasma half-life. […] The free drug concentration in blood plasma is generally considered to be the pharmacologically active form in clinical pharmacology.

Assay [4] deals with Wild type human ovarian cancer cells (A2780/WT). Kind of assay: SRB cytotoxicity assay, inhibition of cell growth, A2780/WT. It counts as cell-based. To be noted: 2 hour treatment, SRB assay at 5 days. How it is done:
as §1

The conditions of assay [5]: sodium hydroxide formulation, hydrolysed E-ring; cited from earlier work.

Read-outs that look alike come from different tables or passages of the source.

Take `CCc1c2c(nc3ccc(OC(=O)N4CCC(N5CCCCC5)CC4)cc13)-c1cc3c(c(=O)n1C2)COC(=O)[C@]3(O)CC` [Irinotecan, 7-ethyl-10-[4-(1-piperidino)-1-piperidino]carbonyloxy camptothecin]: the neovascularization entry in assay [1] is given as “significant reduction”.
Take `CC[C@@]1(O)C(=O)OCc2c1cc1n(c2=O)Cc2c-1nc1ccccc1c2CC[Si](C)(C)C` [Total Synthesis BNP1350, (4S)-4-ethyl-4-hydroxy-11-[2-(trimethylsilyl)ethyl]-1H-pyrano[3′:4′:6,7]indolizino[1,2-b]quinoline-3,14(4H,12H)-dione]: the IC50 in assay [2] (Test 1, listed as Natural Product BNP1350, read-out: IC50 (nM) A2780/DX5, Test 1) is 8.9 nM; in assay [2] (Test 1, read-out: IC50 (nM) A2780/DX5, Test 1), 11.9 nM; in assay [2] (Test 2, listed as Natural Product BNP1350, read-out: IC50 (nM) A2780/DX5, Test 2) it was 11.6 nM; in assay [2] (Test 2, read-out: IC50 (nM) A2780/DX5, Test 2), 11.7 nM; in assay [2] (average of Test 1 and Test 2, listed as Natural Product BNP1350, read-out: IC50 (nM) A2780/DX5, Average), 10.3 nM; in assay [2] (average of Test 1 and Test 2, read-out: IC50 (nM) A2780/DX5, Average) it was 11.8 nM. Also, the IC50 was 6.7 nM in assay [4] (Test 1, listed as Natural Product BNP1350, read-out: IC50 (nM) A2780/WT, Test 1); 6 nM in assay [4] (Test 1, read-out: IC50 (nM) A2780/WT, Test 1); 5.4 nM in assay [4] (Test 2, listed as Natural Product BNP1350, read-out: IC50 (nM) A2780/WT, Test 2); 6.8 nM in assay [4] (Test 2, read-out: IC50 (nM) A2780/WT, Test 2); 6.1 nM in assay [4] (average of Test 1 and Test 2, listed as Natural Product BNP1350, read-out: IC50 (nM) A2780/WT, Average); 6.4 nM in assay [4] (average of Test 1 and Test 2, read-out: IC50 (nM) A2780/WT, Average). Also, the results for the “Resistance Factor Ratio A2780/DX5 IC50/A2780WT IC50” value in assay [2] and in assay [2] (listed as Natural Product BNP1350) were 1.8 and 1.7, respectively. Further, the “antitumor potency compared with Topotecan or SN-38” value in assay [3] is “significantly more potent”.
As to `CC[C@@](O)(C(=O)O)c1cc2n(c(=O)c1CO)Cc1cc3ccccc3nc1-2` [carboxylate form of CPT], the “anti-tumor potency relative to non-hydrolyzed lactone form of CPT” value in assay [5] is “one-tenth or less”.
